The text below walks through data of paper PMC7734590, “Identification of a Selective RelA Inhibitor Based on DSE-FRET Screening Methods” (International Journal of Molecular Sciences, 2020).

In assay [1] the target is T1, p52 (Homo sapiens, UniProt Q00653).
T1 sequence (Q00653 1-454 limits assumed): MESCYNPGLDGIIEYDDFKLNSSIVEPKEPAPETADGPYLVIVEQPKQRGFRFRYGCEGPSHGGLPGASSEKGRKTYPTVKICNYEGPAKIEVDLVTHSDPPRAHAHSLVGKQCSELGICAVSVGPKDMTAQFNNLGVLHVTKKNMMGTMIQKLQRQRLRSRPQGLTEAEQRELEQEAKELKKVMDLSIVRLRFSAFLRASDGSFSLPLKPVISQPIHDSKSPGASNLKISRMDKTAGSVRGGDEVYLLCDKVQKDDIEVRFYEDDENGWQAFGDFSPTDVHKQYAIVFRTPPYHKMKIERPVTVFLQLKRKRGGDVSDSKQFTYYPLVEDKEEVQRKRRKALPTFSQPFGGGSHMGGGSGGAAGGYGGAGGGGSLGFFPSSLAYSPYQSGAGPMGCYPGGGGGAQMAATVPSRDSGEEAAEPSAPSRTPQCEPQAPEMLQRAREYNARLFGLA
The assay can be described thus: DSE-FRET p52–DNA binding inhibition. The format is biochemical.
Experimental: (§3) Plate-based (384 scale) DNA-binding experiments were carried out with 0.1 µL of 2 mM or 1 mg/mL compound, 2 µL of 80 nM NF-D1 (consisting of NF-01F and NF-14D), 1 µL of 20 ng/µL poly dI-dC, and 6.9 µL of 3.2 pmol protein in binding buffer (10 mM 4-(2-hydroxyethyl)-1-piperazineethanesulfonic acid (HEPES)–NaOH pH 7.9, 50 mM KCl, 0.1 mM ethylenediaminetetraacetic acid (EDTA), 2.5 mM dithiothreitol (DTT), 10% glycerol, and 0.05% Nonidet P40). The plates were incubated for 30 min at room temperature, after which 10 µL of NF-D2 (consisting of NF-02 and NF-13) was added. The plates were centrifuged at 1000 rpm for 30 s, followed by shaking for 30 s using a plate shaker (Biotec). Fluorescence was measured at 528 nm, after excitation at 485 nm, using a multiplate reader (Biotec) over a period of 60 min.

The next assay deals with T2, cRel (Homo sapiens, UniProt Q04864).
T2 construct: GST; made in house
T2 sequence (Q04864 1-619): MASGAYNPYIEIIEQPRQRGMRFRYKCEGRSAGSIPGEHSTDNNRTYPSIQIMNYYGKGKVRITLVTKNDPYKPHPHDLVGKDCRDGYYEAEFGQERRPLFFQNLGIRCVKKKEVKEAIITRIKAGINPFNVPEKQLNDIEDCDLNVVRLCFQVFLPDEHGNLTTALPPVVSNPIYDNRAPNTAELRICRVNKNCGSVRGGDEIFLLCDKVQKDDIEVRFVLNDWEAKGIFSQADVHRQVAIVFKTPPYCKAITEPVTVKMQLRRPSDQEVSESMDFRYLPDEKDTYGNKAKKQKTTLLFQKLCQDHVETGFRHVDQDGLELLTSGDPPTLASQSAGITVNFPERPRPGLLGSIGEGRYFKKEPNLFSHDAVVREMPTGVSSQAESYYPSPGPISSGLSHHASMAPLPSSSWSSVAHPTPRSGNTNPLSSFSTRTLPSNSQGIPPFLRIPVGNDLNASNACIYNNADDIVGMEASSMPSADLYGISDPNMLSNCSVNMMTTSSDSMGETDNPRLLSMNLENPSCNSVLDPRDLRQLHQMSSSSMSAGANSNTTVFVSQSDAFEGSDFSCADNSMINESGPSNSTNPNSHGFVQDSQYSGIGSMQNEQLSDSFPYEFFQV
In words: DSE-FRET cRel–DNA binding inhibition. The format is biochemical.

The target of another assay is GST–RelA (Homo sapiens, UniProt Q04206). The assay can be described thus: SPR analysis with immobilized GST–RelA. The format is binding. The conditions noted are these: for Rmax / Kd: GST–RelA; for Kd: read-out: dissociation constant (Kd). The method, then:
(§1) SPR biosensor measurements were performed at 25 °C using a Biacore T100 instrument (GE Healthcare, Chicago, IL, USA). […] Next, 4 µg/mL GST–RelA or 5 µg/mL GST (GE Healthcare) was flowed through the channel (5 μL/min, for 180 s) and captured on the sensor chip. […] Dissociation constants were computed by fitting to a 1:1 interaction model using Biacore (GE Healthcare). Stoichiometry was calculated based on the theoretical Rmax value, where the theoretical Rmax = MWA/MWL RL SM (A, analyte; L, ligand; RL, immobilization level of ligand RU; SM, stoichiometry).

For a further assay, the target named is T3, GST–p52 (Homo sapiens, UniProt Q00653).
T3 sequence (Q00653 1-454 limits assumed): T1 sequence (Q00653 1-454 limits assumed)
In words: SPR analysis with immobilized GST–p52. The format is binding. As to the method: as §1

Assay [2] has as its target T1, p52. In words: EMSA with recombinant p52. The format is biochemical.
Assay [3] deals with NF-κB–DNA complexes in PK8 nuclear extract. The assay can be described thus: EMSA with nuclear extracts from TNF-α-treated PK8 cells. The format is biochemical, human. The conditions noted are these: 500 µM A55. The method, then:
(§2) For EMSA using nuclear extract, PK8 cells were treated with TNF-α (50 ng/mL) for 10 min before nuclear protein extraction. The cells were washed with ice-cold phosphate-buffered saline (PBS), followed by buffer A (10 mM HEPES–NaOH, pH 7.9, 10 mM KCl, 1.5 mM MgCl2, 0.5 mM DTT, and 0.5 mM phenylmethanesulfonyl fluoride (PMSF)). After 15 min on ice, the cell suspension was centrifuged at 4 °C for 3 min at 2000 rpm, and the resultant cell pellets were resuspended in buffer A. Cells were homogenized using Dounse homogenizer type A (tight, 50 stroke) on ice. Homogenates were centrifuged at 4 °C for 10 min at 5000 rpm, and the resultant nuclear protein pellets were resuspended in buffer C (20 mM HEPES–NaOH pH 7.9, 600 mM KCl, 1.5 mM MgCl2, 25% glycerol, 0.2 mM EDTA, 0.5 mM DTT, and 0.5 mM PMSF). The nuclear proteins were incubated for 1 h on ice with intermittent tapping followed by 15 min of centrifugation at 18,000 rpm (4 °C). The supernatants were dialyzed using a Slide-A-Layzer Dialysis cassette 3500MW (Thermo: 66110) with buffer D (20 mM HEPES–NaOH pH 7.9, 100 mM KCl, 20% glycerol, 0.2 mM EDTA, 0.5 mM DTT, and 0.5 mM PMSF). The dialysis products were then aliquoted, snap-frozen, and stored at −80 °C.

In assay [4] the test system is T4, NF-κB–DNA complexes in PK8 nuclear extract.
T4 construct: nuclear extracts from tumor necrosis factor (TNF)-α-treated PK8 cells; endogenous in cells; host or cells: PK8 (human pancreatic carcinoma), TNF-α 50 ng/mL for 10 min, nuclear extract
The description is as above. The format is biochemical, human. The conditions noted are these: TNF-α 50 ng/mL 10 min. As to the method: as §2

The test system of a further assay is PK8 cells. The assay can be described thus: Cell viability assay (PrestoBlue), TNF-α-treated PK8 cells. The format is cell-based, human. The conditions noted are these: TNF-α 50 ng/mL, 48 h. The method, then:
The human pancreatic carcinoma cell line PK8 was grown in Roswell Park Memorial Institute 1640 Medium (RPMI) (SIGMA; R8758) supplemented with 10% fetal bovine serum (FBS) at 37 °C with 5% CO2.
Cell viability was measured using the PrestoBlue assay according to the standard protocol (Thermo Fisher Scientific, Waltham, MA, USA: A13261). PK8 cells were cultivated on 96-well plates. After a 48 h treatment with TNF-α (50 ng/mL) in the presence or absence of A55, the culture medium was replaced with fresh medium containing 10% PrestoBlue and incubated for an additional 1 h at 37 °C and 5% CO2. Fluorescence intensity was then measured using a multiplate reader (EnSpire, PerkinElmer, Waltham, MA, USA).

Each structure is given as a SMILES string. Read-outs that look alike come from different tables or passages of the source. Some results are limits rather than exact numbers.

Chain of GST–RelA (Q04206 19-306 limits assumed): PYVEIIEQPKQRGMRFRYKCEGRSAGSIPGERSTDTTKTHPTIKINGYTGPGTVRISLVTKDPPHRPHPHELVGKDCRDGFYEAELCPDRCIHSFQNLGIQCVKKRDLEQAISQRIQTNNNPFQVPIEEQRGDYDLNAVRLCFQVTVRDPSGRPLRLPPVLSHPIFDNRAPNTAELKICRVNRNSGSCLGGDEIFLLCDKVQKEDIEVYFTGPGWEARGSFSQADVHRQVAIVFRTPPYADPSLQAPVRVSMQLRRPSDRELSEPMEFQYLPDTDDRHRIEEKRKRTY
Experimental for cRel: as §3

For `Cc1cc(O)n(CC(=O)O)c(=O)c1C(N)=O` [A55, 2-(3-carbamoyl-6-hydroxy-4-methyl-2-oxopyridin-1(2H)-yl) acetic acid], the “p52–DNA binding inhibition at 50 µM” value at p52 [1] (96-well plates, 50 µM) is recorded as “inhibited only RelA–DNA binding”. The inhibition at 50 µM at p52 [1] (96 well plate, 50 µM, 120 min-0 min, read-out: Kinetic assay @ 50 µM p52 Inhibition % ΔRFU(120 min-0 min)) came out at 6.66%. The IC50 on p52 [1] (DSE-FRET) and on cRel was above 100 µM in each case. Also, the Rmax worked out at 7.3 RU on GST–RelA (0.625–20 µM A55); 4.7 RU on GST–RelA (3.125–100 µM A55); 11.4 RU at GST–p52 (GST–p52, 3.125–100 µM A55). Also, the Kd on GST–RelA (0.625–20 µM A55) amounted to 2.87 µM; at GST–RelA (3.125–100 µM A55), 13 µM; at GST–p52, 1.27 µM. Besides, the Rmax GST-RelA was determined as 4.7 RU on GST–RelA (Run 1, 100 uM - […], theoretical Rmax 4.5) and 7.3 RU at GST–RelA (Run 2, 20 uM - […], theoretical Rmax 5.0). At GST–p52 (Run 1, 100 uM - […], theoretical Rmax 3.4), this compound yielded an Rmax GST-p52 of 11.4 RU. Also, on p52 [2], the “EMSA inhibition of p52–DNA binding” value is given as “selectively inhibited the RelA–DNA binding”. Besides, in assay [3], the “EMSA band shift, other protein–DNA complexes (lower band)” value is given as “did not affect the lower band”. Further, the “EMSA band shift, RelA–DNA complex (upper band)” value in assay [4] is recorded as “Only the upper band disappeared”. In addition, the “cell proliferation / growth inhibition” value in the assay with PK8 cells is “enhanced the growth inhibition of TNF-α-treated PK8 cells in a dose-dependent manner”.
